Assay [1] deals with A375, B16 and MCF‐7 cell lines. In words: CV cell viability assay, summary for A375, B16 and MCF‐7. The class given is cell-based. The note with it: range over the three cell lines, 72 h. An excerpt: Thus, care must be taken when comparing their biological activities with those of our previous studies, even with the same cell line, because the covalent vs. non‐covalent combination of drugs might imply different mechanisms of action in the cell.44 Here, we studied the in vitro activity of ruthenacarborane 3, i. e. free acid, and its 8‐hydroxyquinolyl (4) and 4‐{(7‐chloroquinolin‐4‐yl)oxy}butanol‐1‐yl (5) esters, against a panel of cancer cell lines (B16 mouse melanoma, A375 human skin melanoma, MCF‐7 human breast adenocarcinoma, LN229 human glioblastoma, U251 human glioma). Human fibroblast cell line MRC‐5, murine microglial cell line BV‐2 as well as peritoneal exudate cells (Mph), were chosen as models for non‐malignant cells. […] Cells were exposed to 3–5 for 72 h, after which cell viability was determined via 3‐(4,5‐dimethylthiazol‐2‐yl)‐2,5‐diphenyltetrazolium bromide (MTT) and crystal violet (CV) assays, in parallel (Table 2). […]
Colorimetric assays for cellular viability. […] The absorbance was measured with an automated microplate reader at λmax 540 nm, with the reference λmax 670 nm. Untreated cells or cells treated only with BSA (control) were also measured, as reference for BSA‐free and BSA‐containing drug formulations, respectively. […] Cell viability is expressed as percentage (%) relative to control (untreated cultures).58 Experiments were run in three independent replicates. […]

Assay [2] concerns microtubule‐associated protein light chain 3B (LC3B). In words: Western blot analysis of LC3B, LN229. The note with it: LN229, IC50 dose. The assay is classed as cell-based, human. The procedure:
mouse microglial cell line BV‐2 was a kind gift from Dr. Irena Lavrnja, Institute for Biological Research “Siniša Stanković” (University of Belgrade). Cells were routinely cultivated in HEPES‐buffered RPMI‐ […]
FCS, 2 mM L‐glutamine, 0.01% sodium pyruvate and antibiotics, at 37 °C in a humidified atmosphere with 5% CO2. Peritoneal resident macrophages (Mph) were collected from C57BL/6 mice, obtained from the animal facility at the Institute for Biological Research “Siniša Stanković” (University of Belgrade), via peritoneal lavage with ice‐cold PBS. Cells were counted and seeded in 96‐well plates and incubated overnight, as described above. Before treatment, non‐adherent cells were removed.
Isolation of cells from animals were performed in accordance to local guidelines and approved by the local Institutional Animal Care and Use Committee (IACUC).
Staining Protocols for Flow Cytometric Analysis. For AnnV/PI, AO and ApoStat staining, cells were treated with an IC50 dose of 3 or 4 for 72 h, then detached with trypsin and washed with PBS. […] Finally, cells were washed in PBS, resuspended in PBS (or AnnV‐binding buffer for AnnV/PI), and analysed. […] Cells were then washed, trypsinised, dissolved in PBS and analysed by CyFlow® Space Partec using the PartecFloMax® software (Partec GmbH, Münster, Germany).
Staining Protocols for Fluorescence Microscopy. […]
On the technique in general: Immunoblotting shows a protein as a band on a membrane.

For orientation: IC50 means the concentration needed to halve the response being measured. Regarding “closo‐ [Compound 3, closo‐ [3‐(η^6‐p‐Cymene)‐1‐(CH2COOH)‐3,1,2‐RuC2B9H10]]”, the IC50 in assay [1] was 18 to 23 µM.
For the substance “closo ‐[3‐(η^6‐p‐Cymene)‐1‐(quinolin‐8‐yl‐acetate)‐3,1,2‐RuC2B9H10] [Compound 4]”, the “expression of LC3B (western blot)” value in assay [2] was “significantly diminished”.

These data come from publication PMC6973020, “Quinoline‐Conjugated Ruthenacarboranes: Toward Hybrid Drugs with a Dual Mode of Action” (Chemmedchem, 2019).
